pIC50: −log10 of the molar value. Entries after “also recorded” stand apart in the source; their conditions may differ. Where a name gives a salt, the structure may show the parent alone.
Assays:
[1] = cited from earlier work
[2] = cited from earlier work; remark: listed apart in the source
parasite in RBCs = assay: microscopy of Giemsa stained blood smears of treated infected RBCs; assay type: cell-based
Procedure: FIGS. 9A-9E are microscopy photographs of standard blood smears. Smears were prepared on glass slides, fixed with 100% methanol, and stained in 10% Giemsa modified stain diluted in PBS for 10 minutes at room temperature.
FIGS. 10A-D are microscopy photographs of standard blood smears. Smears were prepared on glass slides, fixed with 100% methanol, and stained in 10% Giemsa modified stain diluted in PBS for 10 minutes at room temperature.
FIGS. 11A-C are microscopy photographs of standard blood smears. Smears were prepared on glass slides, fixed with 100% methanol, and stained in 10% Giemsa modified stain diluted in PBS for 10 minutes at room temperature.

malaria infected RBCs = assay: ex vivo parasitemia in blood from malaria infected Vietnamese patients (PCR); assay type: cell-based, human; conditions: 48 hours of incubation, various concentrations
band 3 [3] = assay: orthovanadate-induced band 3 tyrosine phosphorylation in erythrocytes; assay type: cell-based, human; conditions: 10 uM, 1 hour, then 2 mM orthovanadate
[4] = system: P. falciparum Dd2-infected erythrocytes; assay: parasitemia of synchronous P. falciparum Dd2 cultures
[5] = system: artemisinin resistant parasites in malaria infected blood; assay: ex vivo parasite growth in artemisinin resistant blood of patient 4 (PCR); assay type: cell-based, human
Procedure: A blood sample was acquired from patient 4 prior to treatment with artemisinin and 13 day after treatment with artemisinin. […] These parasites are considered artemisinin resistant since there is a persistent parasitemia in the patient, even after artemisinin therapy.
Upon arrival of each sample, malaria infected RBCs were separated from plasma and leukocytes by three washes in wash medium (RPMI 1640 medium containing 2 mM glutamine, 24 mM NaHCO, 25 mM Hepes, 20 mM glucose, and 32 mg/m gentamicin, pH 6.80).
Smears of infected erythrocytes were obtained to assess initial parasitemia. Slides were fixed in 100% methanol and stained with 1/10 dilution of Giemsa solution, incubated for 10 min at room temperature, washed with water, dried, and observed under oil immersion lens (100×) for microscopic analysis. An aliquot was also saved for PCR analysis.
Malaria infected erythrocytes were re-suspended at 2% hematocrit in growth medium consisting of RPMI 1640 supplemented with 2 mM glutamine, 24 mM NaHCO, 25 mM Hepes, 20 mM glucose, and […] gentamicin, pH 6.80 and 10% heat inactivated human serum. Infected blood was aliquoted into 96 well plates pretreated with Syk kinase inhibitor H and incubated at 37° C. in CO2 incubation bags. After 48 hours of incubation, the cultures were processed and analyzed by PCR.

[6] = system: P falciparum strain Palo Alto; assay: parasitemia / re-infection in P. falciparum-infected RBC cultures; assay type: cell-based, Plasmodium falciparum; conditions: for parasitemia level as % of the initial level: added 24 hours after start of culture, 72 hours after treatment; for effect on level of parasitemia during second cycle (re-infection): all concentrations examined (0.1-10 μM); for effect on level of parasitemia during first parasite cycle: first 48 hours, inhibitor added 24 hours after start
Procedure: Inhibition of Syk in RBCs. Infected and non-infected RBCs were treated with Syk kinase inhibitor 11 (FIG. 2) at different concentrations and at different times after the start of the cultures. Cultivation of P. falciparum-infected RBCs. Freshly drawn blood (Rh+) from healthy adults of both sexes was used following informed consent in all studies. […] To assess total parasitemia and the relative numbers of ring and trophozoite stage cells, slides were prepared from cultures at the indicated times and stained with Diff-Quik reagent prior to analysis. 1000 cells were then scored by microscopic analysis of the cell staining patterns. To evaluate the potential of Syk kinase inhibitors as a therapy for treating malaria, the effect of Syk kinase inhibitors on preventing re-infection of additional erythrocytes was evaluated. Based on the hypothesis that destabilization of the RBCM is beneficial to the parasite during egress, blocking RBCM destabilization by inhibiting Syk-mediated tyrosine phosphorylation of band 3 may result in a reduction in the spread of infected cells. To test this, erythrocyte cultures were infected with P. falciparum and then treated 24 hours later with the Syk kinase inhibitor (0, 0.1, 1, and 10 uM concentrations) (FIG. 2). In this set of experiments Syk kinase inhibitors have been added 24 hours after the start of the parasite cultures. Data are means of 2 or 4 experiments with standard deviations. The data presented represents the mean of two to four experiments. The level of parasitemia was then calculated at 24, 48, 72 and 96 hours after addition of the Syk kinase inhibitor. The efficiency of the Syk kinase inhibitor at different stages of the parasite development cycle was examined. […] Growth inhibition was calculated as a % re-invasion rate relative to untreated cultures. […] However, when infected cultures are treated at 24 hours after the initial infection, nearly 100% of parasite re-infection is inhibited. This time point was confirmed in a flow cytometric analysis where the number of merozoites released from isolated schizonts, were measured with or without Syk kinase inhibitor treatment. […] This is consistent with our proposed mechanism of the Syk kinase inhibitor blocking the necessary destabilization of the erythrocyte cell membrane required for egress. Inhibition of Syk in RBCs. Infected and non-infected RBCs were treated with Syk kinase inhibitor IV (FIG. 6) at different concentrations and at different times after the start of the cultures. Cultivation of P. falciparum-infected RBCs. Freshly drawn blood (Rh+) from healthy adults of both sexes was used following informed consent in all studies. […] To assess total parasitemia and the relative numbers of ring and trophozoite stage cells, slides were prepared from cultures at the indicated times and stained with Diff-Quik reagent prior to analysis, 1000 cells were then scored by microscopic analysis of the cell staining patterns. To test this, erythrocyte cultures were infected with P. falciparum and then treated 24 hours later with the Syk kinase inhibitor (0, 0.1, and 10 uM concentrations) (FIG. 6). The data presented represents the mean of two to four experiments. The level of parasitemia was then calculated at 24, 48, 72 and 96 hours after addition of the Syk kinase inhibitor.

[7] = system: P. falciparum-infected RBCs; assay: vesiculation (microparticle release) of infected RBCs; assay type: cell-based, human; conditions: 10 μM, added 12 hours after infection
Procedure: Micro-vesicle Quantification. Infected and non-infected RBCs were washed 3× in RPMI 1640-HEPES medium and then resuspended at 10% hematocrit in the same medium containing a protease inhibitor cocktail (Sigma-Aldrich). […] Cells were then centrifuged at 2000×g to pellet the RBCs followed by a centrifugation step at 20,000×g for 10 minutes to pellet the RBC membranes. RBC vesicles present in the supernatant were labeled with anti-glycophorin A antibodies or with eosine-maleimide for labeling band 3, and quantified using a FACSCalibur cytometer (BD Biosciences) and the Cell Quest analysis software (BD Biosciences). Vesicles were selected using forward and side light scatter (FSC and SSC signals set to logarithmic amplification). A total of 40,000 events were analyzed. The amount of MPs released by infected RBCs was also measured. […] MPs were isolated from the supernatant by differential centrifugation (as in the INODs paper) and their amount was estimated measuring their band 3 content ([…] blots). Data are mean of 2 experiments with SD (in the second experiment we could measure only the ast times). […] To measure vesiculation, microparticles were isolated from the culture supernatants and quantified based on their band 3 content (determined by Western blotting) [Pantaleo, Free Radic Biol Med 2012, 52: 527-536].

band 3 [8] = assay: band 3 tyrosine phosphorylation in parasite cultures (Western blot); assay type: cell-based, human; conditions: 10 μM added at 12 hours; at 48 hours post infection
Procedure: Immunoblot Analysis. […] The nitrocellulose membranes were then probed using either fluorescein-5'-maleimide (0.25 mg/ml) (Pierce) or anti-phosphotyrosine antibody (Santa Cruz, Calif.) and anti-Syk (Santa Cruz, Calif.) antibodies and with anti-band 3 (Sigma Aldrich). The blots were then analyzed using an 800 nm laser scanner (Odyssey, Licor, USA). […] In this set of experiments, Syk kinase inhibitors were added 12 hours after the start of the parasite cultures. The content of band 3 was measured by western blotting. The percent of band 3 phosphorylation was also measured. […] Band 3 phosphorylation levels have been normalized for the band 3 content ([…] blot). The expectation is that band 3 tyrosine phosphorylation would also be diminished in the Syk kinase inhibitor treated cultures. This is indeed the case. The % of band tyrosine phosphorylation was measured via Western blotting with an anti-phosphotyrosine antibody. […] The cultures were then normalized to the vandate induced level of phosphorylation. […] This is consistent with the hypothesis that just prior to egress the parasite would phosphorylate band 3, disrupt its interaction with ankyrin and result in a destabilized membrane that is more susceptible to breech as required during egress.

## COc1ccc2c(c1)c(C=C1C(=O)Nc3ccc(S(N)(=O)=O)cc31)cn2CCCO [Compd 18]
[1]
  Solubility: <0.1 mg·L

## Cc1ccc(NC(=O)c2ccc(CN3CCN(C)CC3)cc2)cc1Nc1nccc(-c2cccnc2)n1 [Imatinib mesylate, 4-[(4-Methyl-1-piperazinyl)methyl]-N-[4-methyl-3-[[4-(3-pyridinyl)-2-pyrimidinyl]amino]-phenyl]benzamide methanesulfonate]
[2]; oral administration
  time post-dose at which Cmax is achieved: 2 to 4 h
Parasite in RBCs; 8 μM, up to 121 hour
  parasite development in blood smears: able to delay the lifecycle of the parasite
Parasite in RBCs; 10 μM, listed as Gleevec, methanesulfonate
  parasite morphology in blood smears: immature trophs from the first cycle that have not matured; also recorded: merozoites stuck or trapped inside the RBCs that cannot egress; also recorded: pyknotic parasites, or dead parasites in condensed form
Malaria infected RBCs
  parasitemia of infected patient blood: effective at reducing the parasitemia
Band 3 [3]
  band 3 tyrosine phosphorylation: completely inhibited
[4]; first 44 hours, added 20 hours after start
  parasitemia during the first cycle: did not cause significant changes in parasitemia
[4]; higher concentrations
  re-infection at the second cycle: fail to reinfect healthy erythrocytes
  viability after 4 cycles of growth: remain nonviable
[4]; starting at 8 μM
  effect on parasite cycles: able to delay the cycles of the parasite

## Cc1ccc(NC(=O)c2ccc(CN3CCNCC3)cc2)cc1Nc1nccc(-c2cccnc2)n1 [N-desmethyl derivative]
[2]; humans
  plasma AUC of metabolite as % of the AUC for imatinib: about 15%
[2]; oral administration in healthy volunteers
  elimination half-life: ~40 h

## NCCNc1ncc(C(N)=O)c(Nc2cccc(C(F)(F)F)c2)n1 [Syk kinase inhibitor II, 2-(2-Aminoethylamino)-4-(3-trifluoromethylanilino)-pyrimidine-5-carboxamide]
[5]; Homo sapiens, sample pre-treatment, parasitemia 0.1%, read-out: IC50 Syk kinase inhibitor II
  pIC50: > 6.22
[5]; pre- and post-artemisinin treatment
  elimination of parasites in malaria infected blood: completely eliminate parasites
[6]; 1 μM
  parasitemia level as % of the initial level: ~80%
[6]; 1 μM, added at 40 and 48 hours post initial infection
  inhibition of parasite re-infection: little impact
[6]; 10 μM
  parasitemia level as % of the initial level: ~80%
[6]; Plasmodium falciparum, 1 μM, added 24 hours after the initial infection, read-out: inhibition of parasite re-infection
  inhibition at 1 µM: ~100%
[6]
  effect on level of parasitemia during second cycle (re-infection): significantly dropped the level of parasitemia
  effect on level of parasitemia during first parasite cycle: no effect
[6]; pre-treatment of new culture
  effect when culture is treated prior to infection with normal merozoites: no effect in blocking the parasitemia
Malaria infected RBCs
  parasitemia of infected patient blood: completely eliminating parasitemia
[7]
  inhibition of vesiculation vs untreated parasite cultures: ~50%
Band 3 [8]
  maximum level of tyrosine phosphorylated band 3 (relative to 2 mM vanadate): ~35%

## COc1ccc(-c2cc3nccn3c(NC3N=CC=CC3C(N)=O)n2)cc1OC (centres unmarked) [Syk kinase inhibitor IV]
[6]; 10 μM
  parasitemia level as % of the initial level: ~80%
[6]
  effect on level of parasitemia during second cycle (re-infection): significantly dropped the level of parasitemia
  effect on level of parasitemia during first parasite cycle: did not cause changes of parasitemia

Source: patent publication US20230128322A1, “SYK KINASE INHIBITORS AS TREATMENT FOR MALARIA” (Purdue Research Foundation, priority 2012, published 2023)
